Molecular target: T1, CPT1 (Rattus norvegicus, UniProt P32198)
T1 construct: CPT1 activity was measured in the particulate fraction of protein extracts from animals treated with ICV control injections; from tissue; host or cells: hypothalamus (arcuate nucleus) of male Sprague-Dawley rats, in vivo or ex vivo
T1 sequence (P32198 2-773): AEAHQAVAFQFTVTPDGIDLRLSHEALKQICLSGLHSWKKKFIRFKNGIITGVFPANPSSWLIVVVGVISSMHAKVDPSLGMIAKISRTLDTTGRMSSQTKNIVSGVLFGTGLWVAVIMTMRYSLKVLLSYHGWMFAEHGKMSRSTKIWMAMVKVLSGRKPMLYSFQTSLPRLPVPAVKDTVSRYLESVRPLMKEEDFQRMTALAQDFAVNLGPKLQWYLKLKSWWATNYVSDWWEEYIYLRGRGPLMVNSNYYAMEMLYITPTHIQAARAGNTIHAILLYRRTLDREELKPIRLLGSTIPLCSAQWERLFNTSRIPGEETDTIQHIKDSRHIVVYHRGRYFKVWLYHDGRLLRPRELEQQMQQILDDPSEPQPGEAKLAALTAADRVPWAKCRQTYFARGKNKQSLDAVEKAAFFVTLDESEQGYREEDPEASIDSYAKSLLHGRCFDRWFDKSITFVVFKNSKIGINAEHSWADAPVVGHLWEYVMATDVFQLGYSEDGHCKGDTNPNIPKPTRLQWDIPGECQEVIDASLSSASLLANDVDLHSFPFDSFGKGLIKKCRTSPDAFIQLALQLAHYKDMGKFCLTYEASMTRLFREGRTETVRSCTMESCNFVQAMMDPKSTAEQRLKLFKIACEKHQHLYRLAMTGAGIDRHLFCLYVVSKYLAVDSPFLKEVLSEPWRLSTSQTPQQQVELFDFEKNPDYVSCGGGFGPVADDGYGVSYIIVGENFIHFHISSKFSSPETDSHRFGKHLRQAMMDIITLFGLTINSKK
Assay: CPT1 activity in arcuate nuclei and whole hypothalamus after ICV injection
Type: in vivo
Conditions: after ICV administration
Experimental: Surgical implantation of ICV cannulae was performed on day 1 (˜3 weeks prior to the in vivo study). Full recovery of body weight and food intake was achieved by day 7. Rats randomized for ribozyme treatment received an ICV injection of CPT1L-Ribo, CPT inhibitors or controls on day 17. The experimental group treated with TDGA received ICV injection of the inhibitor on day 21, 6 hr prior to the harvesting of brains. Panels B. and C. show quantitation of CPT1L (B) and CPT1M (C) mRNA by real-time PCR. RNA was purified from individual hypothalamic nuclei (PVN, LHA, and arcuate), which were obtained by micro punch technique 3 days after ICV injection of pTarget control (▪; N=4) or CPT1LRibo (□; N=5). Copy number of CPT1 mRNA is normalized to β-Actin copy number ×10^6. […] CPT1 activity was measured in the particulate fraction of protein extracts from animals treated with ICV control injections (▪; N=6, receiving aCSF+2% DMSO or Control Ribo), TDGA ( ?; N=6), or CPTL-Ribo (□; N=5). […] Levels of stearoyl-CoA (F) and oleyl-CoA (E) respectively were measured by HPLC in arcuate of rats injected ICV with control compound (▪; ST1340) or ST1326 (□).
ICV catheters were implanted in male Sprague-Dawley rats by stereotaxic surgery (Obici et al., 2002a; Obici et al., 2001; Liu et al., 1998). […] Thus, we next measured CPT1 activity in ARC and in whole hypothalamus. […]

For “CPT1L-Ribo: plasmid (pTarget, CMV promoter) expressing a hammerhead ribozyme that specifically cleaves rat CPT1L mRNA, complexed to PEI for ICV injection (DNA CUGUACCAAAGAGCUGUAGAGUCCGUGAGGACGAAACGCCGCUCACAAUG)”, the “CPT1 activity in ARC” value was “marked decrease”.

From patent US7705016B2, “Regulation of food intake by modulation of long-chain fatty acyl-CoA levels in the hypothalamus” (Albert Einstein College of Medicine of Yeshiva University, priority 2003, dated 2010)
